Ten compounds from patent publication US8431563B2 (priority 2010, dated 2013) can be followed below.

In experiment [1] the target is T1, interaction between glucokinase (GK) and glucokinase regulatory protein (GKRP) (Homo sapiens, UniProt Q14397).
T1 sequence (Q14397 1-625): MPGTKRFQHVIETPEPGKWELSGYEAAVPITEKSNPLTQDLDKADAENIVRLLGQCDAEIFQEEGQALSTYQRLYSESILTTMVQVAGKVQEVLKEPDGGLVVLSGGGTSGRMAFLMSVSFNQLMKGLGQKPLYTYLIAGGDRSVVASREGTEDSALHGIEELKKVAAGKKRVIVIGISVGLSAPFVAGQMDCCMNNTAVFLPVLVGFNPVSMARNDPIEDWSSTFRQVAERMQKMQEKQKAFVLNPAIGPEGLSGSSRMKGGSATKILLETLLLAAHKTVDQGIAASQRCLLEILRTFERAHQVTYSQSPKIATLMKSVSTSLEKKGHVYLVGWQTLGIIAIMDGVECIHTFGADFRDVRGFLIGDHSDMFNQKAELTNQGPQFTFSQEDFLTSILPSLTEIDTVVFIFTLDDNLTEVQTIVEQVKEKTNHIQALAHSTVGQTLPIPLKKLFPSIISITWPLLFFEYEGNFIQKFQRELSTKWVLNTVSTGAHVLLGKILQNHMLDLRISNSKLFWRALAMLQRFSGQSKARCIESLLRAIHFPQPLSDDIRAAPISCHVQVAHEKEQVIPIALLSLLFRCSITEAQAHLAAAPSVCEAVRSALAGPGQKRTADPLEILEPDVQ
Nature of the experiment: biochemical. Conditions: avi-tagged GKRP, GK-fluorescein, AlphaScreen beads; read-out: GK-GKRP IC50 (Binding). Format: binding. The essentials: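 Avi-tagged human GKRP preincubated with compound for 20 min at room temperature, then 6 nM GK-fluorescein (concentration of added solution) introduced and incubated 2 h in the dark. Buffer: 20 mM Tris pH 7.5, 0.05% BSA, 1 mM DTT, 1 μM sorbitol-6-phosphate. Plate read on a fluorescence reader.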

Experiment [2] has as its target T2, GKRP (Glucokinase Regulatory Protein) with human His-hepatic GK (Homo sapiens, UniProt Q14397).
T2 sequence (Q14397 1-625): T1 sequence (Q14397 1-625)
Nature of the experiment: biochemical. The essentials: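 Human His-tagged hepatic GK (30 nM in the 5× working stock) in 50 mM Tris pH 7.5, 4 mM MgCl2, 6% DMSO with DTT, BSA and Brij-35. Enzyme was added after a 30 min step and reacted 30 min at room temperature. The reaction was stopped with acetonitrile and 13C-glucose-6-phosphate formed from 13C-glucose was quantified by LC MS/MS.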

Setting [3] is: 13C-glucose-6-phosphate formation, 280 nM GKRP (10×), 30 nM GK (5×), read-out: GK-GKRP EC50 (LC MS/MS-2).

Like-named read-outs stand apart in the source and are kept apart here.

As a reminder, the IC50 is the concentration needed to halve the response being measured. As to `CCC1COCCN1C[C@H]1CN(S(=O)(=O)c2cccs2)CCN1c1ccc(C(C)(O)C(F)(F)F)cc1` (mixture of isomers) [Example 143, 2-(4-((2S)-2-((3-ethyl-4-morpholinyl)methyl)-4-(2-thiophenylsulfonyl)-1-piperazinyl)phenyl)-1,1,1-trifluoro-2-propanol], the IC50 in experiment [1] was found to be 80 nM. In experiment [2] (setting [3]), the EC50 came out at 36 nM.

For `CC(O)(c1ccc(N2CCN(S(=O)(=O)c3cccs3)C[C@@H]2CSc2ccc(F)cc2)cc1)C(F)(F)F` (mixture of isomers) [Example 190, 1,1,1-trifluoro-2-(4-((2R)-2-(((4-fluorophenyl)sulfanyl)methyl)-4-(2-thiophenylsulfonyl)-1-piperazinyl)phenyl)-2-propanol], the IC50 in experiment [1] turned out to be 30 nM. Besides, the EC50 in experiment [2] (setting [3]) amounted to 15 nM.

Take `O=S(=O)(c1cccs1)N1CCN(c2ncc(C(O)(C(F)(F)F)C(F)(F)F)cn2)[C@@H](CN2C3COCC2C(O)C3)C1` (single isomer, unassigned) [Example 79 Peak #2]: the IC50 in experiment [1] was determined as 32 nM. In addition, the EC50 in experiment [2] (setting [3]) came out at 73 nM.

For the compound “2-(4-((2S)-4-((5-amino-2-thiophenyl)sulfonyl)-2-(((3S)-3-methyl-4-morpholinyl)methyl)-1-piperazinyl)phenyl)-1,1,1,3,3,3-hexafluoro-2-propanol [Example 225]”, in experiment [1], the IC50 was 7 nM. Further, in experiment [2] (setting [3]), the EC50 came to 19 nM.

`CC(O)(c1ccc(N2CCN(S(=O)(=O)c3cccs3)C[C@@H]2CN(C2COC2)S(C)(=O)=O)cc1)C(F)(F)F` (mixture of isomers) [Example 207, N-3-oxetanyl-N-(((2R)-4-(2-thiophenylsulfonyl)-1-(4-(2,2,2-trifluoro-1-hydroxy-1-methylethyl)phenyl)-2-piperazinyl)methyl)methanesulfonamide]: the IC50 in experiment [1] turned out to be 241 nM. Moreover, the EC50 in experiment [2] (setting [3]) is 257 nM.

Regarding `CC(O)(c1ccc(N2CCN(S(=O)(=O)c3cccs3)C[C@@H]2CN2CC3(COC3)C2)cc1)C(F)(F)F` (mixture of isomers) [Example 84, 1,1,1-trifluoro-2-(4-((2S)-2-(2-oxa-6-azaspiro[3.3]hept-6-ylmethyl)-4-(2-thiophenylsulfonyl)-1-piperazinyl)phenyl)-2-propanol], the IC50 in experiment [1] amounted to 667 nM. In experiment [2] (GK-GKRP EC50 (LC MS/MS-2)), this compound registered an EC50 of 659 nM.

As for `CC1(C)C(=O)NCCN1C[C@H]1CN(S(=O)(=O)c2cccs2)CCN1c1ccc(C(C)(O)C(F)(F)F)cc1` (single isomer, unassigned) [Example 180 Peak #2], in experiment [1], the IC50 was 8 nM. The EC50 in experiment [2] (setting [3]) was 42 nM.

Consider `CC(C)CN(C[C@H]1CN(S(=O)(=O)c2ccc(N)nc2)CCN1c1ncc(C(O)(C(F)(F)F)C(F)(F)F)cn1)S(C)(=O)=O` [Example 230 (6-amino-3-pyridinyl), N-(((2S)-4-((6-amino-3-pyridinyl)sulfonyl)-1-(5-(2,2,2-trifluoro-1-hydroxy-1-(trifluoromethyl)ethyl)-2-pyrimidinyl)-2-piperazinyl)methyl)-N-(2-methylpropyl)methanesulfonamide], for which the IC50 in experiment [1] was found to be 1 nM. In addition, in experiment [2] (setting [3]), the EC50 came to 11 nM.

Turning to `CC1(CN(C[C@H]2CN(S(=O)(=O)c3cccs3)CCN2c2ccc(C(C)(O)C(F)(F)F)cc2)S(C)(=O)=O)COC1` (mixture of isomers) [Example 216, N-((3-methyl-3-oxetanyl)methyl)-N-(((2S)-4-(2-thiophenylsulfonyl)-1-(4-(2,2,2-trifluoro-1-hydroxy-1-methylethyl)phenyl)-2-piperazinyl)methyl)methanesulfonamide], the IC50 in experiment [1] was 172 nM. The EC50 in experiment [2] (setting [3]) amounted to 194 nM.

Turning to `CC1(C)C(=O)NCCN1C[C@H]1CN(S(=O)(=O)c2cccs2)CCN1c1ccc(C(C)(O)C(F)(F)F)cc1` (mixture of isomers) [Example 180, 3,3-dimethyl-4-(((2S)-4-(2-thiophenylsulfonyl)-1-(4-(2,2,2-trifluoro-1-hydroxy-1-methylethyl)phenyl)-2-piperazinyl)methyl)-2-piperazinone], the IC50 in experiment [1] was determined as 22 nM. In experiment [2] (setting [3]), the EC50 amounted to 51 nM.
